Assay results published in patent publication US10851064B2, “ACSS2 inhibitors and methods of use thereof” (METABOMED LTD., priority 2017, dated 2020).

Experiments:
ACSS2 [1] = molecular target: T1, ACSS2 (Homo sapiens, UniProt Q9NR19); test: cell-based
Experimental: (§1) ACSS2 Cellular Activity Assay (Cellular IC50)
(§2) The cellular activity of ACSS2 was based on tracing the incorporation of carbons from ^13C-Acetate into fatty-acids.
(§3) BT474/MDA-MB-468 cells growing in DMEM+25 mM D-glucose+1 mM sodium pyruvate+10% FBS+2 mM glutamine were plated in 12-well plates at 0.4×10^6 cells/well. The cells were then incubated at CO2 incubator for 24 hrs at hypoxic conditions (1% O2) before treated with compounds. At day 2, the medium was replaced to DMEM medium containing 15 mM Glucose, 1 mM Pyruvate, 0.65 mM Glutamine, 1% Dialyzed serum, 3.5 ug/ml Biotin, 0.2 mM ^13C-Acetate and various concentrations of the compounds. The cells were incubated for 5 hours at CO2 incubator in hypoxic conditions (1% O2). At the end of the 5 hours' incubation, the cells were washed twice with cold PBS, harvested in 1 ml PBS and transfer into V-shaped HPLC glass vials and centrifuge for 10 min at 600 g at 4 C. The supernatant was removed, and the cells' pellets were stored at −80° C. until taken for saponification.
(§4) The cells pellets were resuspended with 0.5 ml of the 90% Methanol, 10% H2O, 0.3M NaOH mixture and incubated at 80° C. for 60 min. Following the incubation, 50 μl formic acid and 0.4 ml hexane were added and the mixture was vortexed for 2 minutes. The vials were left few minutes for phases separation and then 200 μl of the top hexane phase extracted to a new glass vial. The hexane was dried under nitrogen and reconstituted in 100 μl of Methanol:Acetonitrile 5:3 mixture. The solution transferred to Eppendorf tubes, spun down at 17000 G for 20 min and transferred to LC-MS vials.
(§5) The analysis was performed with Thermo Q Exactive mass spectrometer with HESI probe and Dionex Ultimate 3000 UHPLC system. The separations were performed on Phenomenex Kintex 2.6u XB-C18 100A 150×2.10 mm column by injecting 5 ul of each sample. The chromatography started with a linear gradient from 85% to 100% of organic solvent (Methanol:Acetonitrile 1:1) versus 10 mM Ammonium Acetate buffer pH 4.7 for 3.5 minutes, followed by 4.5 minutes of isocratic 100% organic solvent and then 3 minutes of isocratic initial conditions, at a flow rate of 0.3 ul/min. The MS source conditions that were used: capillary temperature 325° C., sheath flow 25, aux flow 15, spray voltage 3.8 kV, aux temperature 300° C. The data collected from Negative ion mode at resolution of 70000 at Full-MS mode in 75-1000 m/z range.
(§6) The analysis of ^13C acetate incorporation into fatty acids (palmitate, myristate and stearate) performed on TraceFinder 3.2.512.0. The negative control areas and ^13C isotopic theoretical natural abundance were subtracted from the samples areas. Total ^13C incorporation for each fatty-acid (palmitate, myristate and stearate) was calculated and presented as percentage of the total amount.

ACSS2 [2] = molecular target: T1, ACSS2; test: cell-based; remark: listed apart in the source
Experimental: as §1, §2, §3, §4, §5, §6

ACSS2 [3] = molecular target: T1, ACSS2; test: cell-based; remark: listed apart in the source
Experimental: Testing the inhibitory effect of compounds on the cellular activity of ACSS2 was done by tracing the incorporation of ^13C from ^13C-acetate into fatty-acids in MDA-MB-468 cells under hypoxic conditions of 1% 02. The assay was done for 5 hours in DMEM with 5.5 mM glucose, 1 mM sodium Pyruvate, 0.65 mM Glutamine, 3.5 ug/ml Biotin, 1% dialyzed serum, 0.5 mM 13C-acetate and with different concentrations of the inhibitors. At the end of the incubation, the cells were washed with cold PBS, harvested into glass tubes and undergo saponification. The level of ^13C incorporation into Palmitate was done by LC-MS analysis and the level of inhibition was calculated with PRISM software.

ACSS2 [4] = molecular target: T1, ACSS2; test: biochemical
Experimental: ACSS2 Cell-Free Activity Assay (Cell-Free IC50)
The assay is based on a coupling reaction with Pyrophosphatase: ACSS2 is converting ATP+CoA+Acetate=>AMP+pyrophosphate+Acetyl-CoA (Ac-CoA). Pyrophosphatase converts pyrophosphate, a product of the ACSS2 reaction, to phosphate which can be detected by measuring the absorbance at 620 nm after incubation with the Biomol green reagent (Enzo life Science, BML-AK111).
Cell-free IC50 Determination:
At the end of the reaction, Biomol Green was added for 30 minutes at RT and the activity was measured by reading the absorbance at 620 nm.

T1 sequence (Q9NR19 whole entry): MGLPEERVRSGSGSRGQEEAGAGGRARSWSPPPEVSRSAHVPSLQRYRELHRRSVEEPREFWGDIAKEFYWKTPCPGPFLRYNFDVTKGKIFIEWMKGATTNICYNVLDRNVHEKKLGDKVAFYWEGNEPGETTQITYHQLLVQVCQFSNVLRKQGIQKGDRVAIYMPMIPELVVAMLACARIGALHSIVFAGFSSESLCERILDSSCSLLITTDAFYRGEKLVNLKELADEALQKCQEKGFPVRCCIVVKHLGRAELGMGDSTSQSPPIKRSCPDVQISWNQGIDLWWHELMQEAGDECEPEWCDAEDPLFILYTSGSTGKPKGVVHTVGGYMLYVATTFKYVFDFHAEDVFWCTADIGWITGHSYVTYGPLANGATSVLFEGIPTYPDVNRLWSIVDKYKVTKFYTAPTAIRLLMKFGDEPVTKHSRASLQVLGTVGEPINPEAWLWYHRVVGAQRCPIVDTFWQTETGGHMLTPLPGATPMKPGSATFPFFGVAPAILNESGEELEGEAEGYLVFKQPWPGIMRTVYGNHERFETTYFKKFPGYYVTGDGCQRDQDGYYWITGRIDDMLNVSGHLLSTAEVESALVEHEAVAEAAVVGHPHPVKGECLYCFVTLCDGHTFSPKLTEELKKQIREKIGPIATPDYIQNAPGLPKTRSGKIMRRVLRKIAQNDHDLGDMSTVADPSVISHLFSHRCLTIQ

SMILES | IC50 (ACSS2 [1]) [nM] | IC50 (ACSS2 [2]) [nM] | IC50 (ACSS2 [3]) [nM] | IC50 (ACSS2 [4]) [nM]
CC1=NN(c2ccccc2)C(=O)C1C(=O)Nc1cccc(C(C)(F)F)c1 (stereo not drawn) [compound 141, N-(3-(1,1-difluoroethyl)phenyl)-3-methyl-5-oxo-1-phenyl-4,5-dihydro-1H-pyrazole-4-carboxamide] | < 100 | < 100 | 0.5 to 50 | 0.01 to 6
CCc1cccc(NC(=O)C2C(=O)N(c3ccc(OC(C)C)cc3)N=C2C)c1 (stereo not drawn) [compound 142, N-(3-ethylphenyl)-1-(4-isopropoxyphenyl)-3-methyl-5-oxo-4,5-dihydro-1H-pyrazole-4-carboxamide] | 100 to 1000 | 100 to 1000 | > 100 | 6 to 100
CC1=NN(c2ccccc2)C(=O)C1C(=O)Nc1cccc(C(=O)N(C)C)c1 (stereo not drawn) [compound 220, N-(3-(dimethylcarbamoyl)phenyl)-3-methyl-5-oxo-1-phenyl-4,5-dihydro-1H-pyrazole-4-carboxamide] | 100 to 1000 | < 100 | > 100 | 0.01 to 6
